Laboratory results reported in US20220387432A1 (priority 2019, published 2022).

Tests used:
[1] = test system: amyloid β-derived diffusible ligand (ADDL) induced synaptotoxicity; details: cited from earlier work
[2] = test system: PrP^Sc-induced synaptotoxicity on hippocampal neurons; details: cited from earlier work
CKIδ = CKIδ (Homo sapiens, UniProt P48730); details: Verkaar et al. (2011); cited from earlier work
CKIε = CKIε (Homo sapiens, UniProt P49674); details: Verkaar et al. (2011); cited from earlier work
[3] = test system: PrP^Sc-induced synaptotoxicity on hippocampal neurons; experiment: cells; format: cell-based, mice
[4] = test system: PrP^Sc-induced synaptotoxicity on hippocampal neurons; format: cell-based, mice

CKIδ, sequence (P48730 whole entry, species assumed): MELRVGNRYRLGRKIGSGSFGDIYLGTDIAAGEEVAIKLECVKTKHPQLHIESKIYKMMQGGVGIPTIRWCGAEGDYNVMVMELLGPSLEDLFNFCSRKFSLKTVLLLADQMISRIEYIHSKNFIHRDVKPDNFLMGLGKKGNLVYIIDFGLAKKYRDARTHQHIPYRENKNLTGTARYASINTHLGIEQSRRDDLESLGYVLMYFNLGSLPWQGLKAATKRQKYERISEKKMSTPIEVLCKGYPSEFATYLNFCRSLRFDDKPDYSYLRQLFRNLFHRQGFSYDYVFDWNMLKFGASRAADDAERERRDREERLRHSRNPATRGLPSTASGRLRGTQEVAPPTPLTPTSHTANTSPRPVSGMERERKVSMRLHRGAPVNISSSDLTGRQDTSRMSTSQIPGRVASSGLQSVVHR
CKIε, sequence (P49674 whole entry, species assumed): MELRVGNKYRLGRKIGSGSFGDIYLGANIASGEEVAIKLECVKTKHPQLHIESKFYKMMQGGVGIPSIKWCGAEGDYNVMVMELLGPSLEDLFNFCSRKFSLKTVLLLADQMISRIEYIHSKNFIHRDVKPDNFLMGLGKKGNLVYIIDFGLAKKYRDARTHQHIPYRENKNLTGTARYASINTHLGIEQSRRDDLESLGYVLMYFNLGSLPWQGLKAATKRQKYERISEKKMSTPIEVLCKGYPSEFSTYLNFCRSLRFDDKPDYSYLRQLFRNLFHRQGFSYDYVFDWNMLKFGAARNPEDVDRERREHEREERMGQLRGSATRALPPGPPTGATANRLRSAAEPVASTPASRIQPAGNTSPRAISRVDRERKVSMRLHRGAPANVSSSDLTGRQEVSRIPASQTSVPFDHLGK

Compound	Effect on Aβ oligomer induced dendritic spine retraction / loss [1]	Effect on PrP^Sc-induced retraction of dendritic spines / synaptotoxicity [2]	Inhibition of casein kinase isoform CKIδ (CKIδ)	Effect against ADDL induced synaptotoxicity [1]	Inhibition of casein kinase isoform CKIε (CKIε)	Effect on spine retraction caused by PrP^Sc [3]	Reversal of dendritic spine retraction accrued during first 24 hrs of PrP^Sc treatment [3]	Dose dependence of effect on PrP^Sc-induced spine loss [3]	Effect on PrP^Sc effects on dendritic spine number [3]	EC50 ([3]; Mus musculus, Hippocampal neuron, 24 h, read-out: EC50 of dose response curve for the rescuing effect on spine number) [nM]	Effect on PrP^Sc effects on mEPSC properties (frequency and amplitude) [4]
Cc1cccc(C#Cc2ccccc2)n1 [MPEP]	blocked	had no influence									
COc1nccc(-c2c(-c3ccc(F)cc3)ncn2C2CCC(O)CC2)n1 (centres unmarked) [SB239063]	no significant effect	blocked	reported to inhibit	ineffective	reported to inhibit	prevented spine retraction	able to reverse the dendritic spine retraction				
O=c1ncn2nc(Sc3ccc(F)cc3F)ccc2c1-c1c(Cl)cccc1Cl [neflamapimod]				showed positive effects				dose dependent	blocked	28.9	blocked
